“Also recorded” adds a separate entry of the source. Square brackets hold non-standard residues; d marks the D form. Peptide text beside a SMILES is read from it.
Experiments:
[1] = test system: CD4+ LNC from TCR Vβ 8.2 Vα 4 transgenic mice; experiment: Apoptosis (TUNEL, flow cytometry) of antigen-stimulated Vβ8.2+ CD4+ lymph node cells in vitro; assay type: cell-based, mouse
Description: To investigate whether the observed decrease in proliferative responses following treatment with CD28 peptides is a result of cell loss, cell death was measured by enzymatic in-situ labeling. Apoptotic cells among MBP NAc1-11 stimulated TCR Vβ 8.2+ CD4+ T cells were detected by staining with FITC labeled Tdt (terminal deoxynucleotidyl transferase). Cells incubated in DNAse served as positive control.
CD4+ T cells from pooled lymph nodes and spleen from B10.PL TCR Vβ 8.2 Vα 4 transgenic mice were cultured in RPMI 1640 in a 96 well round-bottom plate, essentially under the conditions specified for proliferation assays. Cells were harvested at the end of 48 hours and apoptotic cells among TCR Vβ 8.2+ CD4+ T cells were detected by the TUNEL method. Briefly, after washing twice with PBS containing 1-% rat serum, the cells were stained with PE labeled anti-mouseVβ 8.1,8.2 TCR (clone MR5-2) (Pharmingen, San Diego, Calif.) for 30 min at room temperature and washed. Subsequently, the cells were fixed with 4% paraformaldehyde in PBS for 30 min at room temperature. Then the cells were washed and permeabilized with 0.1% Triton X-100 in 0.1% sodium citrate for 2 min at 4° C. After washing, the DNA strand breaks in the cells were detected by incubating the cells with fluorescein labeled TUNEL mix (terminal deoxynucleotidyl transferase (Tdt)) for 60 min at 37° C. using an in situ cell death detection kit (Boehringer Mannheim, Mannheim, Germany) according to the manufacturer's recommendations. As a positive control, cells were incubated in DNAse (1 mg/ml) for 10 minutes at room temperature prior to incubation with TdT. The negative control consisted of cells incubated without TdT. Cells were then washed with PBS and analyzed by flow cytometry.

B10.PL mice with EAE = experiment: EAE in B10.PL mice immunized with GP-MBP in CFA, clinical score; assay type: in vivo, mouse; details: for clinical course (in words): single i.v. 500 μg on day 14 post-immunization, observed 26 days
Description: Female B10.PL mice (6–8 wk old) were obtained from The Jackson laboratory (Bar Harbor, Me.) and housed at the Ohio State University, (Columbus, Ohio).
Mice were injected subcutaneously over four sites on the flank with an emulsion containing 200 μg of guinea-pig-MBP in CFA containing 200 μg heat killed Mycobacterium tuberculosis, Jamaica strain. Pertussis toxin (List Biological, Campbell, Calif.) at 150 ng in 0.2 ml of PBS was given intraperitoneally at the time of immunization and 48 hours later. Animals were observed daily for clinical signs and scored as follows: 1, limp tail or waddling gait with tail tonicity; 2, waddling gait with limp tail (ataxia); 2.5 ataxia with partial paralysis of one limb, 3, partial hind-limb paralysis, 3.5 full paralysis of one limb with partial paralysis of the second limb, 4, full paralysis of two limbs, 4.5 moribund and 5, death. All mice immunized with MBP (200 μg) in CFA developed clinical disease varying between ataxia and complete hind limb paralysis by day 14 post-immunization. They were then distributed randomly into six groups with mean clinical score of each group approximately the same.
Groups of mice were left untreated or injected intravenously with 500 μg of EL CD28 or RI CD28 peptide mimetics, or LCD28, RLCD28 and DCD28 peptides. The mean clinical score of untreated mice continued to increase reaching a maximum of 3.4 on day 20. Similarly the disease continued to progress in mice treated with LCD28, RLCD28 and DCD28, reaching mean maximal clinical score of 3.8 (day 18), 3.4 (day 16 ) and 3.7 (day 16) respectively.
The biological activity of synthetic CD28 peptide analogues during antigen priming in vivo in EAE was then shown. B10.PL mice immunized with GP-MBP (200 μg) in CFA were either left untreated or injected intravenously 500 μg of EL CD28 or RI CD28 peptide mimetics or LCD28, RLCD28 and DCD28 peptides on the day of immunization. The vehicle treated mice and mice treated with: LCD28, RL CD28 and D CD28 peptide had maximum disease incidence of 100%, 100%, 91.5% and 91.5% and maximum mean cumulative score per day of 1.9, 1.8, 1.7 and 2 respectively. […] The effect of RI CD28 peptide injection lasted for the duration of observation (37 days) in one experiment.

[2] = test system: lymph node cells of MBP-primed mice; experiment: IL-2 ELISPOT of draining lymph node cells from peptide-treated MBP-immunized mice; assay type: in vivo, mouse; details: mice treated on day 0 of immunization, ELISPOT on restimulation
Description: Ninety-six well unifilter plates (Polyfiltronics, Rockland, Md.) were coated overnight at 4° C. with rat anti-mouse IL-2 (Clone JES6-1A12) (Pharmingen, Calif.) at 4 μg/ml. The plates were then washed 4× with sterile PBS and blocked with 1% BSA in DMEM for 2 h at room temperature. Subsequently, isolated single cell suspensions of CD4+ LNC (5×10^6 cells/ml) and splenocytes (10×10^6 cells/ml) were added with the antigens and CD28 peptides under the conditions as specified for the proliferation assays. After 24 h of culture in the incubator, the cells were removed by washing 3× with PBS and 4× with PBS containing Tween (1:2000) (PBST). Then biotinylated anti mouse-IL-2 (Clone JES6-5H4) (Pharmingen, Calif.) 2 μg/ml was added and incubated at 4° C. overnight. After washing 3× with PBST and 3× with PBS, goat anti-biotin antibody conjugated to alkaline phosphatase (Vector Laboratories Inc, Burlingame, Calif.) diluted to 1:1000 in PBST containing 1% BSA was added and incubated for 2 h at room temperature. The spots were visualized by adding BCIP/NBT phosphatase substrate (Kirkeguard & Perry Laboratories, Gaithesburg, Md.). Image analysis of ELISA spot assays was performed on a Series 1 Immunospot Image Analyzer (Autoimmun Diagnostika (US) Inc.) customized for analyzing ELISA spots to meet objective criteria for size, chromatic density, shape and color.
MBP reactive T cells that induce EAE are known to display a Th1 phenotype secreting the proinflammatory cytokines IL-2, […] and TNF-β (36. Kay, B. K., M. P. Williamson, and M. Sudol. 2000. Faseb J 14, no. 2:231). ELISPOT assay was used to assess in vitro cytokine production by draining lymph node cells and splenocytes upon restimulation from in vivo MBP-primed T cells. Mice were treated as described in Example 3, on day 0 of immunization.

[3] = 150 μM peptide, 48 hr, versus untreated
[4] = single i.v. 500 μg on the day of immunization

| SMILES | percentage of apoptotic cells (in words) ([1]; 75 μM peptide, 48 hrs) | percentage of apoptotic cells (in words) [1, 3] | clinical course (in words) (B10.PL mice with EAE) | maximum disease incidence (B10.PL mice with EAE; [4]) [%] | maximum mean cumulative score per day (B10.PL mice with EAE; [4]) | duration of effect of injection (B10.PL mice with EAE; single i.v. 500 μg on the day of immunization, one experiment, duration of observation) [days] | frequency of IL-2 secreting lymph node cells [2] | percentage of apoptotic cells (in words) ([1]; 150 μM peptide, 48 hr, versus untreated, listed as ELCD28) |
| --- | --- | --- | --- | --- | --- | --- | --- | --- |
| CC[C@@H](C)[C@@H](NC(C)=O)C(=O)N[C@@H](C(=O)NCC(=O)N[C@H](CC(N)=O)C(=O)N[C@H](CO)C(=O)N[C@H](CCCNC(=N)N)C(=O)N[C@H](CCC(=O)O)C(=O)N[C@H](CC(N)=O)C(=O)N[C@H](CC(=O)O)C(=O)N[C@H](CC(C)C)C(=O)N[C@H](Cc1ccc(O)cc1)C(=O)N1CCC[C@@H]1C(=O)N1CCC[C@@H]1C(=O)N1CCC[C@@H]1C(=O)N[C@H](Cc1ccc(O)cc1)C(=O)N[C@H](CCSC)C(=O)N[C@H](Cc1ccccc1)C(=O)N[C@H](CCC(=O)O)C(=O)N[C@@H](C(=O)N[C@H](CCCCN)C(N)=O)[C@H](C)CC)[C@H](C)O [RI CD28] (Ac-[dI][dT]G[dN][dS][dR][dE][dN][dD][dL][dY][dP][dP][dP][dY][dM][dF][dE][dI][dK]-NH2) | Significant increase | significantly higher percentage; also recorded: Significant increase | continued to show clinical improvement | 60 | 0.74 | 37 | 1753+/−37.7 | – |
| CC[C@H](C)[C@H](NC(=O)[C@@H](NC(=O)CNC(=O)[C@H](CC(N)=O)NC(=O)[C@H](CO)NC(=O)[C@H](CCCNC(=N)N)NC(=O)[C@H](CCC(=O)O)NC(=O)[C@H](CC(N)=O)NC(=O)[C@H](CC(=O)O)NC(=O)[C@H](CC(C)C)NC(=O)[C@H](Cc1ccc(O)cc1)NC(=O)[C@@H]1CCCN1C(=O)[C@@H]1CCCN1C(=O)[C@@H]1CCCN1C(=O)[C@H](Cc1ccc(O)cc1)NC(=O)[C@H](CCSC)NC(=O)[C@H](Cc1ccccc1)NC(=O)[C@H](CCC(=O)O)NC(=O)[C@@H](NC(=O)[C@H](CCCCN)NC(C)=O)[C@@H](C)CC)[C@@H](C)O)C(N)=O [EL CD28] (Ac-KIEFMYPPPYLDNERSNGTI-NH2) | – | Significant increase | continued to show clinical improvement | 70 | 1.1 | – | 2776+/−53.5 | significantly higher percentage |

— patent US7220822B2, “CD28 mimetics for blocking T cell mediated immune reactions” (The Ohio State University, priority 2000, dated 2007)
